Results published in BigSolDB 2.1.

N=C(N)NC(N)=S
solubility (mole fraction)
Settings	283.15 K	288.15 K	293.15 K	298.15 K	303.15 K	308.15 K	313.15 K	318.15 K	323.15 K
in 1,4-dioxane	–	0.00901	0.0107	0.0127	0.0151	0.0178	0.0208	0.0241	0.028
in NMP	0.0139	0.0166	0.0195	0.0236	0.0281	0.0329	0.0389	0.0455	0.0532
in acetone	0.0103	0.0123	0.0145	0.0175	0.0203	0.0241	0.028	0.0324	0.0371
in acetonitrile	0.00365	0.00428	0.00504	0.00591	0.00688	0.008	0.00927	0.0105	0.0121
in cyclohexane	3.6e-05	4.3e-05	5e-05	6e-05	7e-05	8.4e-05	9.9e-05	0.000118	0.00014
in ethanol	0.0045	0.00521	0.00605	0.00706	0.00817	0.00933	0.0106	0.0122	0.014
in ethyl acetate	0.00196	0.00245	0.00314	0.00391	0.00471	0.00569	0.00679	0.00797	0.0094
in isopropanol	0.00124	0.00167	0.00223	0.00286	0.00363	0.00456	0.00559	0.0069	0.00854
in methanol	0.00558	0.00635	0.00744	0.0089	0.0105	0.0123	0.0143	0.0165	0.0192
in n-butanol	0.000477	0.000749	0.00111	0.00162	0.00226	0.00314	0.00432	0.00575	0.0076
in n-propanol	0.00271	0.00326	0.00393	0.00468	0.00564	0.00676	0.00782	0.00901	0.0104
in toluene	0.000126	0.000137	0.000149	0.00016	0.000174	0.000189	0.000206	0.000223	0.000243
